{"source": "patent US5760034A", "about": "“Heterocyclic substituted naphthyridinones and methods and compositions employing them” (Schering Corporation, priority 1992, dated 1998)", "key": {"SRS-A release": {"test_system": "SRS-A release", "assay": "inhibition of leukotriene (SRS-A) release in vitro, lung fragments of sensitized guinea pigs challenged with ovalbumin", "format": "cell-based", "conditions": "12 min preincubation, 20 μg/ml ovalbumin challenge 15 min; for inhibition at 10 µM: Cavia porcellus, guinea pig lung fragments", "experimental": "In one such test procedure, the anti-allergy method of this invention is identified by tests which measure a compound's inhibition of leukotriene release in sensitized guinea pigs. Male Hartley guinea pigs (250-300 g) are sensitized with 5 mg ovalbumin injected i.p. and 5 mg injected s.c. in 1 ml saline on day 1 and 5 mg ovalbumin injected i.p. on day 4. The sensitized animals are used 3-4 weeks later at which time they weigh 450-500 g. Sensitized guinea pigs are killed by a blow to the head and the lungs removed and cleaned of visible connective tissue, trachea and large blood vessels. The lungs from individual animals are sliced into fragments approximately 1 mm in thickness using a McIlwain tissue chopper and then washed with oxygenated Tyrode's buffer. Weighed aliquots (approximately 400 mg wet weight) of lung are transferred into vials containing 2 ml of fresh Tyrode's solution (containing 10 mM cysteine) and incubated in the presence or absence of test compound for 12 min at 37° C. The tissues are then challenged with 20 μg ovalbumin/ml (final concentration) and incubated for 15 min.\nTo measure leukotriene release, an aliquot of supernatant fluid is extracted with 4 volumes of 100% ethanol. After removal of the precipitated protein, the leukotriene content is measured by a radioimmunoassay using [^3 H]LTC4 and antiserum obtained from New England Nuclear. […] Percent inhibition of lekotriene release is calculated by comparing for each lung the release in the presence of the test compound to that in the absence of test compound."}, "sensitized guinea pigs": {"test_system": "sensitized guinea pigs", "assay": "suppression of anaphylactic bronchospasm in ovalbumin-sensitized guinea pigs", "format": "in vivo, guinea pig", "conditions": "5 mg/kg, orally 2 hours before ovalbumin challenge; peak increase in intratracheal pressure within 15 minutes vs vehicle", "experimental": "Male Hartley guinea pigs (250-300 g) are sensitized with 5 mg ovalbumin injected i.p. and 5 mg injected s.c. in 1 ml saline on day 1 and 5 mg ovalbumin injected i.p. on day 4. The sensitized animals are used 3-4 weeks later at which time they weigh 450-500 g. The sensitized guinea pigs are fasted overnight and the following morning are anesthetized with 0.9 ml/kg i.p. of dialurethane (0.1 g/ml diallylbarbituric acid, 0.4 g/ml ethylurea and 0.4 g/ml urethane). The trachea are cannulated and the animals are ventilated by a Harvard® rodent respirator at 50 strokes/minute with a stroke volume of 5 ml. A side arm to the tracheal cannula is connected to a pressure transducer (Harvard) to obtain a continuous measure of intratracheal pressure which is recorded on a polygraph (Harvard). The jugular vein is cannulated for the i.v. administration of substances. The sensitized guinea pigs are injected i.v. with 1 mg/kg propranolol, 5 mg/kg indomethacin and 2 mg/kg mepyramine given together in a volume of 1 ml/kg. […] Bronchoconstriction is measured as the peak increase in intratracheal pressure occurring within 15 minutes after antigen challenge.\nTest compounds are administered orally 2 hours before challenge with ovalbumin. Suppression of anaphylactic bronchospasm is expressed as a percent inhibition of the peak increase in intratracheal pressure by comparison to a vehicle-treated control group."}}, "data": [{"compound": "3-[1,2-Dihydro-3-(4-morpholinyl)-2-oxo-1,8-naphthyridin-1-yl]benzonitrile", "values": [{"measurement": "Inhibition of SRS-A release in vitro - Guinea Pig Lung 10 μM", "setting": "SRS-A release", "result": 66, "unit": "%"}]}, {"compound": "3-[3-(Hexahydro-1H-azepin-1-yl)-1,2-dihydro-2-oxo-1,8-naphthyridin-1-yl]-benzo-nitrile", "values": [{"measurement": "Inhibition of SRS-A release in vitro - Guinea Pig Lung 10 μM", "setting": "SRS-A release", "result": 46, "unit": "%"}]}, {"compound": "N#Cc1cccc(-n2c(=O)c(N3CCCC3)cc3cccnc32)c1", "note": "[3-(1-Pyrrolidinyl)-1-(3-cyanophenyl)-1,8-naphthyridin-2-(1H )-one]", "values": [{"measurement": "inhibition at 10 µM", "setting": "SRS-A release", "result": 43, "unit": "%"}]}, {"compound": "O=c1c(N2CCCC2)cc2cccnc2n1-c1cccc(C(F)(F)F)c1", "note": "[3-(1-pyrrolidinyl)-1-(3-trifluoromethylphenyl)-1,8-naphthyridin-2(1H)-one]", "values": [{"measurement": "inhibition at 10 µM", "setting": "SRS-A release", "result": 46, "unit": "%"}]}, {"compound": "O=c1c(N2CCCC2)cc2cccnc2n1-c1ccccc1", "note": "[3-(1-pyrrolidinyl)-1-phenyl-1,8-naphthyridin-2(1H)-one]", "values": [{"measurement": "inhibition at 10 µM", "setting": "SRS-A release", "result": 34, "unit": "%"}, {"measurement": "Inhibition of anaphylactic bronchospasm, % Inhibition", "setting": "sensitized guinea pigs", "result": 61, "unit": "%"}]}, {"compound": "O=c1c(N2CCOCC2)cc2cccnc2n1-c1ccccc1", "note": "[3-(4-Morpholinyl)-1-phenyl-1,8-naphthyridin-2(1H )-one]", "values": [{"measurement": "inhibition at 10 µM", "setting": "SRS-A release", "result": 65, "unit": "%"}, {"measurement": "Inhibition of anaphylactic bronchospasm, % Inhibition", "setting": "sensitized guinea pigs", "result": 93, "unit": "%"}]}]}
